The record followed here is ChEMBL document CHEMBL1150510 (Bioorg Med Chem Lett, 1997).

Assay [1] addresses Serotonin 2 (5-HT2) receptor (Homo sapiens, UniProt P41595+P28223+P28335). Briefly: In vitro binding affinity of compound against neuronal 5-hydroxytryptamine 2 receptor. In kind it is protein assay.
The target in another assay is Adrenergic receptor beta (Homo sapiens, UniProt P08588+P07550+P13945). The experiment in a line: In vitro binding affinity of compound against neuronal Beta adrenergic receptor. In kind it is protein assay.
For a further assay, the target named is D(1A) dopamine receptor (Homo sapiens, UniProt P21728). Briefly: In vitro binding affinity of compound against dopamine neuronal Dopamine receptor D1.
Chain of D(1A) dopamine receptor (P21728 whole entry): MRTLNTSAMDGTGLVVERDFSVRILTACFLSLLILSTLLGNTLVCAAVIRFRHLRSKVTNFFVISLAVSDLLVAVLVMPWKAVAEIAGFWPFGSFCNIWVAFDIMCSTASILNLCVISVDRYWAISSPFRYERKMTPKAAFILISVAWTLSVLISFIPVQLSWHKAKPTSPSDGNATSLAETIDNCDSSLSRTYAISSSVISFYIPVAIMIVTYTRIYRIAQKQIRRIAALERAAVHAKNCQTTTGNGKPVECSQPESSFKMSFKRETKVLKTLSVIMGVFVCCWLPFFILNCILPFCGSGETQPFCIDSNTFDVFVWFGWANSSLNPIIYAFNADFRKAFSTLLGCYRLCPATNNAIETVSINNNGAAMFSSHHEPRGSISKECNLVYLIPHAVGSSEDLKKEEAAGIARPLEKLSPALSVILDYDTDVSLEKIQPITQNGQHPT
For a further assay, the target named is D(2) dopamine receptor (Homo sapiens, UniProt P14416). Briefly: In vitro binding affinity of compound against neuronal Dopamine receptor D2.
Chain of D(2) dopamine receptor (P14416 whole entry): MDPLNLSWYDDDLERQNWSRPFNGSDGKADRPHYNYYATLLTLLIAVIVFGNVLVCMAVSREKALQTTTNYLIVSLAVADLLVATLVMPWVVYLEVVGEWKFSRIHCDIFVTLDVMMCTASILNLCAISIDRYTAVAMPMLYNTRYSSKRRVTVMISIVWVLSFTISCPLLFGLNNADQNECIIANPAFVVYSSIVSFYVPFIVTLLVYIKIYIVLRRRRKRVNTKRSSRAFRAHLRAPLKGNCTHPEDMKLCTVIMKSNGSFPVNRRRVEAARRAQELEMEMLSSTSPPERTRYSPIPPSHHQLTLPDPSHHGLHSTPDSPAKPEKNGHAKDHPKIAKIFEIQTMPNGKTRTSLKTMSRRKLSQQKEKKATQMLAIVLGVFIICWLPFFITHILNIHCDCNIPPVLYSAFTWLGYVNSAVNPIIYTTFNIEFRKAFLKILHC
For assay [2], the target named is T1, Adrenergic receptor alpha-1 (Homo sapiens, UniProt P35348+P25100+P35368).
T1 sequence (P35348 whole entry): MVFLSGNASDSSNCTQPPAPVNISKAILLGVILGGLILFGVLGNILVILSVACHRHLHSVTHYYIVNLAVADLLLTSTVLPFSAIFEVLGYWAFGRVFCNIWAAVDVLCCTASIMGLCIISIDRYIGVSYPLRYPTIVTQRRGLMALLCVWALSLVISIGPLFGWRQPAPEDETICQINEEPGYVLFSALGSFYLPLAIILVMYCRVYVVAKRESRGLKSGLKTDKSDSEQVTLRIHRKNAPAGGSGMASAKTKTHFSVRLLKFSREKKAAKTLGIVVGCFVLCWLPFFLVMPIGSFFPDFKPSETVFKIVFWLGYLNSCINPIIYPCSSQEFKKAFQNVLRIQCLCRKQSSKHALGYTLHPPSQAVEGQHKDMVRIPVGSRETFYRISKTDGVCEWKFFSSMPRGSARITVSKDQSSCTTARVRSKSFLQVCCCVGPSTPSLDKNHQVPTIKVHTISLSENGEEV
T1 sequence (P25100 whole entry): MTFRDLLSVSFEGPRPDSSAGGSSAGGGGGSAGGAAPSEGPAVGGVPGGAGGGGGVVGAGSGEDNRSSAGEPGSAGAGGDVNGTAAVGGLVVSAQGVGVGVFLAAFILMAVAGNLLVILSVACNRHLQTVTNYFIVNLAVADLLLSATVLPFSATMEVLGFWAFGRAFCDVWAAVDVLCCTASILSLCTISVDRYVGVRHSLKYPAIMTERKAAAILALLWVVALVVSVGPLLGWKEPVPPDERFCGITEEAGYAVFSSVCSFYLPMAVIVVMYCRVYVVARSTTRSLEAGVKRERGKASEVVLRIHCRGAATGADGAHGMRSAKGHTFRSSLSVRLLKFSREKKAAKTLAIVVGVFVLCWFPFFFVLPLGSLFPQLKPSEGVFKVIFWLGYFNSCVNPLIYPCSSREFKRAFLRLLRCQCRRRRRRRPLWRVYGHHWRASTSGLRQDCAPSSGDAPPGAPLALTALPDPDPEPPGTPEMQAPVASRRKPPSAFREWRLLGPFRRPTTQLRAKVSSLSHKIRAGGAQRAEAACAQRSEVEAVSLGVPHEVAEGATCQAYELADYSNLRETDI
T1 sequence (P35368 whole entry): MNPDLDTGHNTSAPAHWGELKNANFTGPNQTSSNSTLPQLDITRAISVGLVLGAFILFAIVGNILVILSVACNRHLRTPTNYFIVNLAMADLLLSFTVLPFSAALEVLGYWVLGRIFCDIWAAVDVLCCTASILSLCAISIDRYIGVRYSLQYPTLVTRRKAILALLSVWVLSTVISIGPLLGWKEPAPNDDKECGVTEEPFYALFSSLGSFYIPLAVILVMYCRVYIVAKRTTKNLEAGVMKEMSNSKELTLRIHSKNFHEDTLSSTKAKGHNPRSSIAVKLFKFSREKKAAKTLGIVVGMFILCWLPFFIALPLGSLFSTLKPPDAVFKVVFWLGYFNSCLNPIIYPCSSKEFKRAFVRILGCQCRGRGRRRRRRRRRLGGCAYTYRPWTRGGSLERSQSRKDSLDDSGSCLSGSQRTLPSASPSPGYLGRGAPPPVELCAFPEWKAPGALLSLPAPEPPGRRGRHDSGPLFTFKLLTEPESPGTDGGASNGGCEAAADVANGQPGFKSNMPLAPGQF
Briefly: In vitro binding affinity of compound against Alpha-1 adrenergic receptor. Type of assay: protein assay.

In assay [3] the target is T2, Adrenergic receptor alpha-2 (Homo sapiens, UniProt P08913+P18825+P18089).
T2 sequence (P08913 whole entry): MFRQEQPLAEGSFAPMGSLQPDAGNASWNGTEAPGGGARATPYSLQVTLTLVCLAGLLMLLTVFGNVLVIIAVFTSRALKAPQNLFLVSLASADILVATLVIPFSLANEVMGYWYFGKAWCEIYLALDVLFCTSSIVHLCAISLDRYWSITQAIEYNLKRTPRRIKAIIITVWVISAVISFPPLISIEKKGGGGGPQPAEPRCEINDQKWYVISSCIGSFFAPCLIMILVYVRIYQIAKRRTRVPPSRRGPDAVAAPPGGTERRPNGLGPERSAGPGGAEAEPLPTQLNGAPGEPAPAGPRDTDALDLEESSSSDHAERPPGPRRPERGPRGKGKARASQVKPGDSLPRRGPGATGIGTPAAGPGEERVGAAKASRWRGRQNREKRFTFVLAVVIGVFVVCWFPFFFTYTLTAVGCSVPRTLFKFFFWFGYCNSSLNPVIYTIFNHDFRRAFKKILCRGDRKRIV
T2 sequence (P18825 whole entry): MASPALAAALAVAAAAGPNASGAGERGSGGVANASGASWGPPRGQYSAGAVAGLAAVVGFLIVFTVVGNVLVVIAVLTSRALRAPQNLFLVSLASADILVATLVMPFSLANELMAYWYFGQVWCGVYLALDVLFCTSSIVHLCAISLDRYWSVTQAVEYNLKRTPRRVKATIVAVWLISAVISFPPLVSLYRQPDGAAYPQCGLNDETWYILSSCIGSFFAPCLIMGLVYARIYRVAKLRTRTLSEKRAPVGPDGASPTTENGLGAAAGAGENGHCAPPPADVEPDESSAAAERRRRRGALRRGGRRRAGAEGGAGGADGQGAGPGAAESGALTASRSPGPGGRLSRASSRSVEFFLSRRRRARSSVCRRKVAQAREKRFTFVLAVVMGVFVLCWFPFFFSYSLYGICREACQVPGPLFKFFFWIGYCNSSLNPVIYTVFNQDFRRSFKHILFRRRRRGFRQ
T2 sequence (P18089 whole entry): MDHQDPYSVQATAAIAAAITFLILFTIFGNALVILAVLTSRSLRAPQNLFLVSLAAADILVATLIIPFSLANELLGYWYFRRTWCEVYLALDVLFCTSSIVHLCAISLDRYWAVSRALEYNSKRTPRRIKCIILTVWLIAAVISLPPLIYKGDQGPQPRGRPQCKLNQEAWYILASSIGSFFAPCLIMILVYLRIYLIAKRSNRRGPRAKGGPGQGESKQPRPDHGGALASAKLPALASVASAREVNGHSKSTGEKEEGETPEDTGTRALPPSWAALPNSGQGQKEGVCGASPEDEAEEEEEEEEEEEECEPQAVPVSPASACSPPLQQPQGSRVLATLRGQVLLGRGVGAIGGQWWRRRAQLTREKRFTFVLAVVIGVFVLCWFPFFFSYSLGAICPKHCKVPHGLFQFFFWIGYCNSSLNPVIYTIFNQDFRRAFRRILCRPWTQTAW
Briefly: In vitro binding affinity of compound against neuronal alpha-2 adrenergic receptor. In kind it is protein assay.

Assay [4] has as its target Muscarinic acetylcholine receptor. The experiment in a line: In vitro binding affinity of compound against muscarinic neuronal receptor. Type of assay: protein assay.
A further assay addresses Histamine H1 receptor (Homo sapiens, UniProt P35367). Briefly: In vitro binding affinity of compound against histamine H1 neuronal receptor.
Assay [5] has as its system Mus musculus. The experiment in a line: In vivo minimum effective dose of compound to block the apomorphine-induced climbing behavior in mice after peroral administration. In kind it is functional.
In assay [6] the target is GABA-A receptor; anion channel. Briefly: In vitro binding affinity for neuronal GABA-A benzodiazepine receptor. Type of assay: protein-complex assay.
For assay [7], the target named is GABA-A receptor; anion channel. Briefly: In vitro binding affinity for neuronal GABA-A receptor. In kind it is protein-complex assay.
Assay [8] has as its system Mus musculus. Briefly: In vivo minimum effective dose of compound to block the apomorphine-induced climbing behavior in mice after intravenous administration. Type of assay: functional.
For assay [9], the system named is Rattus norvegicus. Briefly: In vivo minimum effective dose of compound to block the conditioned avoidance behavior in rats after intravenous administration. Type of assay: functional.
Assay [10] has as its system Mus musculus. Briefly: In vivo minimum effective dose of compound to block the apomorphine-induced climbing behavior in mice after subcutaneous administration. Type of assay: functional.
For assay [11], the system named is Rattus norvegicus. The experiment in a line: In vivo minimum effective dose of compound to block the conditioned avoidance behavior in rats after peroral administration. Type of assay: functional.

In general, Ki refers to a dissociation constant, usually derived from enzyme kinetics or from competition with a known ligand. A higher Ki goes with lower affinity. A word on the pKi: it is the Ki on a negative log10 scale, so that one unit is a factor of ten. High values mean a low Ki, low ones a high Ki.

Each structure is given as a SMILES string. pKi: −log10 of the molar value.

Chain of Histamine H1 receptor (P35367 whole entry): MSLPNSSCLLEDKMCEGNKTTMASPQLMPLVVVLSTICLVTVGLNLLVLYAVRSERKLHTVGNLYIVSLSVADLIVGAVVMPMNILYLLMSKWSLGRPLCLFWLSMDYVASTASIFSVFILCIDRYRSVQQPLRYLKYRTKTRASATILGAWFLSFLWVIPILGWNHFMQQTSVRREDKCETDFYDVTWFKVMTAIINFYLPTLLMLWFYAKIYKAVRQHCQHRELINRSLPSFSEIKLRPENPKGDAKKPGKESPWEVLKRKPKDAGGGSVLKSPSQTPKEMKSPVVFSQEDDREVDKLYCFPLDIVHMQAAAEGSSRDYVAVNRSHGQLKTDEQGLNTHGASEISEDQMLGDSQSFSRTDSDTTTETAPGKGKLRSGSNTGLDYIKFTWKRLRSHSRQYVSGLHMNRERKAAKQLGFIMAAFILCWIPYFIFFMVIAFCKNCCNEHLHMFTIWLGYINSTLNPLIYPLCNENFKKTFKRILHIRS

Take `CN1CCN(C2=Nc3ccccc3Nc3sc(CO)cc32)CC1`: the Ki is 0.018 µM in [1]; over 10 µM on Adrenergic receptor beta; 0.012 µM in assay [2]; 0.783 µM in [3]; 0.501 µM in assay [4]. The pKi at D(1A) dopamine receptor is 7.18; at D(2) dopamine receptor it was 7.66; at Histamine H1 receptor, 8.22; in [6], under 6.00; in [7] it was under 5.00. In addition, the EDmin in the assay with Mus musculus [5] is 20 mg/kg.

With `Cc1cc2c(s1)Nc1ccccc1N=C2N1CC[N+](C)([O-])CC1`, the Ki in [1] was 0.112 µM; at Adrenergic receptor beta it was over 10 µM; in assay [2] it was 0.266 µM; in assay [3], over 10 µM; in [4], 0.662 µM. Further, the pKi at D(1A) dopamine receptor was 6.40; on D(2) dopamine receptor it was 6.92; at Histamine H1 receptor, 7.06; in assay [6], under 5.00; in [7], under 5.00. For the same molecule, the EDmin in the assay with Mus musculus [8] is over 10 mg/kg; in the assay on Rattus norvegicus [9], over 4 mg/kg; in the assay with Mus musculus [10] it was 12.5 mg/kg; with Rattus norvegicus [11], over 25 mg/kg.

Regarding `Cc1cc2c(s1)Nc1ccccc1N=C2N1CCNCC1` [DESMETHYLOLANZAPINE], the Ki in [1] is 0.023 µM; on Adrenergic receptor beta, over 10 µM; in [2] it was 0.08 µM; in assay [3] it was 1 µM; in assay [4], 0.333 µM. In addition, the pKi on D(1A) dopamine receptor is 6.69; at D(2) dopamine receptor, 8.05; at Histamine H1 receptor, 7.66; in assay [6], under 5.00; in assay [7] it was under 5.00. Further, the EDmin in the assay on Mus musculus [8] is over 10 mg/kg; in the assay with Rattus norvegicus [9], over 4 mg/kg; with Mus musculus [10], 50 mg/kg; with Rattus norvegicus [11], over 25 mg/kg.

In the case of `Cc1cc2c(s1)Nc1ccccc1N=C2N1CCN(C)CC1` [OLANZAPINE], the EDmin with Mus musculus [8] was 1 mg/kg; with Rattus norvegicus [9] it was 0.25 mg/kg; with Mus musculus [10], 0.625 mg/kg; in the assay with Mus musculus [5] it was 2.5 mg/kg; in the assay with Rattus norvegicus [11], 2.5 mg/kg. Further, the pKi in assay [6] and in assay [7] was under 5.00 each time.
